Assay: xn = mol fraction of the nth substance listed
Settings: Gas, isochoric method

FC(F)(F)/C=C/Cl [(E)-1-chloro-3,3,3-trifluoroprop-1-ene] + CC(C)C
Settings	specific volume [m3/kg]
303.15 K, 113.3 kPa, x2 = 0.125	0.174
303.15 K, 186.5 kPa, x2 = 0.564	0.1429
308.15 K, 115.4 kPa, x2 = 0.125	0.1741
308.15 K, 190.1 kPa, x2 = 0.564	0.1429
313.15 K, 117.5 kPa, x2 = 0.125	0.1741
313.15 K, 193.7 kPa, x2 = 0.564	0.143
313.15 K, 197.4 kPa, x2 = 0.453	0.1261
318.15 K, 119.6 kPa, x2 = 0.125	0.1742
318.15 K, 197.5 kPa, x2 = 0.564	0.143
318.15 K, 200.9 kPa, x2 = 0.453	0.1262
318.15 K, 340.9 kPa, x2 = 0.746	0.0926
323.15 K, 121.8 kPa, x2 = 0.125	0.1742
323.15 K, 200.9 kPa, x2 = 0.564	0.143
323.15 K, 204.5 kPa, x2 = 0.453	0.1262
323.15 K, 347.6 kPa, x2 = 0.746	0.0926
328.15 K, 123.8 kPa, x2 = 0.125	0.1742
328.15 K, 204.3 kPa, x2 = 0.564	0.143
328.15 K, 208 kPa, x2 = 0.453	0.1262
328.15 K, 353.9 kPa, x2 = 0.746	0.0926
333.15 K, 125.8 kPa, x2 = 0.125	0.1743
333.15 K, 207.8 kPa, x2 = 0.564	0.1431
333.15 K, 211.4 kPa, x2 = 0.453	0.1262
333.15 K, 360.6 kPa, x2 = 0.746	0.0926
333.15 K, 648.1 kPa, x2 = 0.865	0.0535
338.15 K, 128.2 kPa, x2 = 0.125	0.1743
338.15 K, 211.1 kPa, x2 = 0.564	0.1431
338.15 K, 214.9 kPa, x2 = 0.453	0.1263
338.15 K, 366.9 kPa, x2 = 0.746	0.0926
338.15 K, 576.1 kPa, x2 = 0.644	0.0499
338.15 K, 661.4 kPa, x2 = 0.865	0.0535
343.15 K, 130.2 kPa, x2 = 0.125	0.1744
343.15 K, 214.6 kPa, x2 = 0.564	0.1431
343.15 K, 218.5 kPa, x2 = 0.453	0.1263
343.15 K, 373.2 kPa, x2 = 0.746	0.0927
343.15 K, 587.5 kPa, x2 = 0.644	0.0499
343.15 K, 674.5 kPa, x2 = 0.865	0.0536
348.15 K, 132.2 kPa, x2 = 0.125	0.1744
348.15 K, 218 kPa, x2 = 0.564	0.1432
348.15 K, 222 kPa, x2 = 0.453	0.1263
348.15 K, 379.5 kPa, x2 = 0.746	0.0927
348.15 K, 598.7 kPa, x2 = 0.644	0.0499
348.15 K, 687.5 kPa, x2 = 0.865	0.0536
353.15 K, 134.4 kPa, x2 = 0.125	0.1744
353.15 K, 221.4 kPa, x2 = 0.564	0.1432
353.15 K, 225.5 kPa, x2 = 0.453	0.1264
353.15 K, 385.8 kPa, x2 = 0.746	0.0927
353.15 K, 609.8 kPa, x2 = 0.644	0.0499
353.15 K, 700.5 kPa, x2 = 0.865	0.0536
358.15 K, 136.3 kPa, x2 = 0.125	0.1745
358.15 K, 224.6 kPa, x2 = 0.564	0.1432
358.15 K, 229 kPa, x2 = 0.453	0.1264
358.15 K, 391.8 kPa, x2 = 0.746	0.0927
358.15 K, 620.8 kPa, x2 = 0.644	0.0499
358.15 K, 713.3 kPa, x2 = 0.865	0.0536
363.15 K, 138.3 kPa, x2 = 0.125	0.1745
363.15 K, 228.1 kPa, x2 = 0.564	0.1433
363.15 K, 232.1 kPa, x2 = 0.453	0.1264
363.15 K, 398.1 kPa, x2 = 0.746	0.0927
363.15 K, 631.1 kPa, x2 = 0.644	0.05
363.15 K, 726.1 kPa, x2 = 0.865	0.0536
368.15 K, 140.4 kPa, x2 = 0.125	0.1745
368.15 K, 231.5 kPa, x2 = 0.564	0.1433
368.15 K, 235.6 kPa, x2 = 0.453	0.1264
368.15 K, 404.2 kPa, x2 = 0.746	0.0928
368.15 K, 642.6 kPa, x2 = 0.644	0.05
368.15 K, 738.7 kPa, x2 = 0.865	0.0536
373.15 K, 142.3 kPa, x2 = 0.125	0.1746
373.15 K, 234.8 kPa, x2 = 0.564	0.1433
373.15 K, 239.1 kPa, x2 = 0.453	0.1265
373.15 K, 410.7 kPa, x2 = 0.746	0.0928
373.15 K, 653.2 kPa, x2 = 0.644	0.05
373.15 K, 751.4 kPa, x2 = 0.865	0.0536
378.15 K, 144.4 kPa, x2 = 0.125	0.1746
378.15 K, 238.2 kPa, x2 = 0.564	0.1434
378.15 K, 242.6 kPa, x2 = 0.453	0.1265
378.15 K, 416.9 kPa, x2 = 0.746	0.0928
378.15 K, 664.1 kPa, x2 = 0.644	0.05
378.15 K, 763.9 kPa, x2 = 0.865	0.0536
383.15 K, 146.5 kPa, x2 = 0.125	0.1747
383.15 K, 241.7 kPa, x2 = 0.564	0.1434
383.15 K, 246.4 kPa, x2 = 0.453	0.1265
383.15 K, 423.2 kPa, x2 = 0.746	0.0928
383.15 K, 675 kPa, x2 = 0.644	0.05
383.15 K, 776.5 kPa, x2 = 0.865	0.0536

Reference: the NIST ThermoML archive (doi:10.1021/acs.jced.7b00769)
